Laboratory results reported in US10131652B2, “Pyrimidinyloxy benzene derivatives as herbicides” (E. I. DU PONT DE NEMOURS AND COMPANY, priority 2014, dated 2018).

How the values were obtained:
Format in all cases: in vivo
[1] = tested on: Italian ryegrass (Lolium multiflorum); experiment: Test B pre-/postemergence plant response
In short: (§1)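 Visual injury scores on a 0–100 scale (100 = complete control) relative to untreated plants, taken about 10 days post-treatment in greenhouse. Treatments were a directed preemergence soil spray and a postemergence spray at one- to two-leaf stage, using surfactant-containing solvent formulation.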

kochia (Kochia scoparia) = experiment: Test B pre-/postemergence plant response
In short: as §1

[2] = tested on: ragweed (common ragweed, Ambrosia elatior); experiment: Test B pre-/postemergence plant response
In short: as §1

corn (Zea mays) = experiment: Test D pre-/postemergence plant response
In short: (§2)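 Seeds were planted in a loam and sand blend and sprayed preemergence. In parallel, seedlings grown in peat moss/vermiculite medium were sprayed postemergence at 2 to 18 cm height. Both used a surfactant-containing non-phytotoxic solvent. Greenhouse ratings at 13 to 15 days used a 0–100 control scale.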

[3] = tested on: blackgrass (Alopecurus myosuroides); experiment: Test D pre-/postemergence plant response
In short: as §2

[4] = tested on: yellow nutsedge (Cyperus esculentus); experiment: Test D pre-/postemergence plant response
In short: as §2

[5] = tested on: Italian ryegrass (Lolium multiflorum); experiment: Test D pre-/postemergence plant response
In short: as §2

[6] = tested on: large (Lg) crabgrass (Digitaria sanguinalis); experiment: Test D pre-/postemergence plant response
In short: as §2

[7] = tested on: pigweed (Amaranthus retroflexus); experiment: Test D pre-/postemergence plant response
In short: as §2

[8] = tested on: barnyardgrass (Echinochloa crus-galli); experiment: Test D pre-/postemergence plant response
In short: as §2

[9] = tested on: giant foxtail (Setaria faberii); experiment: Test D pre-/postemergence plant response
In short: as §2

[10] = tested on: galium (catchweed bedstraw, Galium aparine); experiment: Test D pre-/postemergence plant response
In short: as §2

[11] = tested on: oilseed rape (Brassica napus); experiment: Test D pre-/postemergence plant response
In short: as §2

[12] = tested on: ragweed (common ragweed, Ambrosia elatior); experiment: Test D pre-/postemergence plant response
In short: as §2

[13] = 31 g ai/ha, Preemergence, 0 to 100 scale where 0 is no effect and 100 is complete control
[14] = 125 g ai/ha, postemergence, 0 to 100 scale, 0 no effect, 100 complete control
[15] = Postemergence, 31 g ai/ha, 0 to 100 scale (0 no effect, 100 complete control)
[16] = Preemergence, 125 g ai/ha, 0 to 100 scale (0 no effect, 100 complete control)
[17] = Postemergence, 31 g ai/ha, scale 0 to 100 (0 no effect, 100 complete control)
[18] = Postemergence, 62 g ai/ha, scale 0 to 100, 0 no effect, 100 complete control
[19] = Postemergence, 125 g ai/ha, scale 0 to 100, 0 no effect, 100 complete control
[20] = Preemergence, 16 g ai/ha, scale 0 to 100 (0 no effect, 100 complete control)
[21] = Preemergence, 31 g ai/ha, scale 0 to 100 (0 no effect, 100 complete control)
[22] = Preemergence, 62 g ai/ha, scale 0 to 100 (0 no effect, 100 complete control)

## Cc1cc(-c2c(F)cccc2Oc2ncc(Cl)cn2)on1 [Compound 229]
[1]; [13]
  Plant response rating, Ryegrass, Italian: 0
[1]; [14]
  Plant response rating, Ryegrass, Italian: 20
[1]; [15]
  Plant response rating, Ryegrass, Italian: 0
[1]; [16]
  Ryegrass, Italian plant response rating: 30
Kochia (Kochia scoparia); [13]
  Plant response rating, Kochia: 80
Kochia (Kochia scoparia); [14]
  Plant response rating, Kochia: 100
Kochia (Kochia scoparia); [15]
  Plant response rating, Kochia: 90
Kochia (Kochia scoparia); [16]
  Kochia plant response rating: 100
[2]; [13]
  Plant response rating, Ragweed: 70
[2]; [14]
  Plant response rating, Ragweed: 100
[2]; [15]
  Plant response rating, Ragweed: 100
[2]; [16]
  Ragweed plant response rating: 90
Corn (Zea mays); Postemergence, 16 g ai/ha
  Plant response rating (scale 0 to 100), Corn: 5
Corn (Zea mays); [17]
  Corn plant response rating: 20
Corn (Zea mays); [18]
  Plant response rating, Corn: 5
Corn (Zea mays); [19]
  Plant response rating, Corn: 5
Corn (Zea mays); Preemergence, 125 g ai/ha
  Plant response rating (scale 0 to 100), Corn: 40
Corn (Zea mays); [20]
  Plant response rating, Corn: 0
Corn (Zea mays); [21]
  Plant response rating, Corn: 5
Corn (Zea mays); [22]
  Plant response rating, Corn: 5
[3]; Postemergence, 16 g ai/ha
  Plant response rating (scale 0 to 100), Blackgrass: 0
[3]; [17]
  Blackgrass plant response rating: 10
[3]; [18]
  Plant response rating, Blackgrass: 15
[3]; [19]
  Plant response rating, Blackgrass: 10
[3]; Preemergence, 125 g ai/ha
  Plant response rating (scale 0 to 100), Blackgrass: 85
[3]; [20]
  Plant response rating, Blackgrass: 15
[3]; [21]
  Plant response rating, Blackgrass: 15
[3]; [22]
  Plant response rating, Blackgrass: 70
[4]; Postemergence, 16 g ai/ha
  Plant response rating (scale 0 to 100), Nutsedge, Yellow: 0
[4]; [17]
  Nutsedge, Yellow plant response rating: 0
[4]; [18]
  Nutsedge, Yellow plant response rating: 10
[4]; [19]
  Plant response rating, Nutsedge, Yellow: 10
[4]; Preemergence, 125 g ai/ha
  Plant response rating (scale 0 to 100), Nutsedge, Yellow: 45
[4]; [20]
  Plant response rating, Nutsedge, Yellow: 0
[4]; [21]
  Plant response rating, Nutsedge, Yellow: 0
[4]; [22]
  Plant response rating, Nutsedge, Yellow: 10
[5]; Postemergence, 16 g ai/ha
  Plant response rating (scale 0 to 100), Ryegrass, Italian: 0
[5]; [17]
  Ryegrass, Italian plant response rating: 0
[5]; [18]
  Ryegrass, Italian plant response rating: 0
[5]; [19]
  Plant response rating, Ryegrass, Italian: 5
[5]; Preemergence, 125 g ai/ha
  Plant response rating (scale 0 to 100), Ryegrass, Italian: 60
[5]; [20]
  Plant response rating, Ryegrass, Italian: 0
[5]; [21]
  Plant response rating, Ryegrass, Italian: 20
[5]; [22]
  Plant response rating, Ryegrass, Italian: 20
[6]; Postemergence, 16 g ai/ha
  Plant response rating (scale 0 to 100), Crabgrass, Large: 0
[6]; [17]
  Crabgrass, Large plant response rating: 0
[6]; [18]
  Plant response rating, Crabgrass, Large: 5
[6]; [19]
  Plant response rating, Crabgrass, Large: 5
[6]; Preemergence, 125 g ai/ha
  Plant response rating (scale 0 to 100), Crabgrass, Large: 100
[6]; [20]
  Plant response rating, Crabgrass, Large: 75
[6]; [21]
  Plant response rating, Crabgrass, Large: 85
[6]; [22]
  Plant response rating, Crabgrass, Large: 100
[7]; Postemergence, 16 g ai/ha
  Plant response rating (scale 0 to 100), Pigweed: 55
[7]; [17]
  Pigweed plant response rating: 60
[7]; [18]
  Pigweed plant response rating: 70
[7]; [19]
  Plant response rating, Pigweed: 80
[7]; Preemergence, 125 g ai/ha
  Plant response rating (scale 0 to 100), Pigweed: 100
[7]; [20]
  Plant response rating, Pigweed: 100
[7]; [21]
  Plant response rating, Pigweed: 100
[7]; [22]
  Plant response rating, Pigweed: 100
[8]; Postemergence, 16 g ai/ha
  Plant response rating (scale 0 to 100), Barnyardgrass: 5
[8]; [17]
  Barnyardgrass plant response rating: 5
[8]; [18]
  Plant response rating, Barnyardgrass: 5
[8]; [19]
  Plant response rating, Barnyardgrass: 10
[8]; Preemergence, 125 g ai/ha
  Plant response rating (scale 0 to 100), Barnyardgrass: 100
[8]; [20]
  Plant response rating, Barnyardgrass: 15
[8]; [21]
  Plant response rating, Barnyardgrass: 55
[8]; [22]
  Plant response rating, Barnyardgrass: 65
[9]; Postemergence, 16 g ai/ha
  Plant response rating (scale 0 to 100), Foxtail, Giant: 0
[9]; [17]
  Foxtail, Giant plant response rating: 5
[9]; [18]
  Plant response rating, Foxtail, Giant: 5
[9]; [19]
  Plant response rating, Foxtail, Giant: 15
[9]; Preemergence, 125 g ai/ha
  Plant response rating (scale 0 to 100), Foxtail, Giant: 98
[9]; [20]
  Plant response rating, Foxtail, Giant: 5
[9]; [21]
  Plant response rating, Foxtail, Giant: 70
[9]; [22]
  Plant response rating, Foxtail, Giant: 90
[10]; Postemergence, 16 g ai/ha
  Plant response rating (scale 0 to 100), Galium: 70
[10]; [17]
  Galium plant response rating: 70
[10]; [18]
  Plant response rating, Galium: 65
[10]; [19]
  Plant response rating, Galium: 80
[10]; Preemergence, 125 g ai/ha
  Plant response rating (scale 0 to 100), Galium: 98
[10]; [20]
  Plant response rating, Galium: 40
[10]; [21]
  Plant response rating, Galium: 80
[10]; [22]
  Plant response rating, Galium: 98
[11]; Postemergence, 16 g ai/ha
  Plant response rating (scale 0 to 100), Oilseed Rape: 45
[11]; [17]
  Oilseed Rape plant response rating: 70
[11]; [18]
  Oilseed Rape plant response rating: 60
[11]; [19]
  Plant response rating, Oilseed Rape: 80
[11]; Preemergence, 125 g ai/ha
  Plant response rating (scale 0 to 100), Oilseed Rape: 100
[11]; [20]
  Plant response rating, Oilseed Rape: 90
[11]; [21]
  Plant response rating, Oilseed Rape: 100
[11]; [22]
  Plant response rating, Oilseed Rape: 100
[12]; Postemergence, 16 g ai/ha
  Plant response rating (scale 0 to 100), Ragweed: 35
[12]; [17]
  Ragweed plant response rating: 50
[12]; [18]
  Ragweed plant response rating: 70
[12]; [19]
  Plant response rating, Ragweed: 60
[12]; Preemergence, 125 g ai/ha
  Plant response rating (scale 0 to 100), Ragweed: 95
[12]; [20]
  Plant response rating, Ragweed: 35
[12]; [21]
  Plant response rating, Ragweed: 50
[12]; [22]
  Plant response rating, Ragweed: 55
